The source of these data is US10231954B2, “Neurodegenerative therapies” (LYTIX BIOPHARMA AS, priority 2014, dated 2019).

Common to all, as to format: biochemical
For one assay, the target named is MNK2 (Homo sapiens, UniProt Q9HBH9). As to the kind of experiment: Kinase profiling MNK2. Particulars: for remaining activity at 100 µM: read-out: residual kinase activity, MNK2. An excerpt:
(§1) Any value less that 25 is considered to be highly significant inhibition.

The target in another assay is T1, EIF2AK3 (Homo sapiens, UniProt Q9NZJ5).
T1 sequence (Q9NZJ5 30-1116): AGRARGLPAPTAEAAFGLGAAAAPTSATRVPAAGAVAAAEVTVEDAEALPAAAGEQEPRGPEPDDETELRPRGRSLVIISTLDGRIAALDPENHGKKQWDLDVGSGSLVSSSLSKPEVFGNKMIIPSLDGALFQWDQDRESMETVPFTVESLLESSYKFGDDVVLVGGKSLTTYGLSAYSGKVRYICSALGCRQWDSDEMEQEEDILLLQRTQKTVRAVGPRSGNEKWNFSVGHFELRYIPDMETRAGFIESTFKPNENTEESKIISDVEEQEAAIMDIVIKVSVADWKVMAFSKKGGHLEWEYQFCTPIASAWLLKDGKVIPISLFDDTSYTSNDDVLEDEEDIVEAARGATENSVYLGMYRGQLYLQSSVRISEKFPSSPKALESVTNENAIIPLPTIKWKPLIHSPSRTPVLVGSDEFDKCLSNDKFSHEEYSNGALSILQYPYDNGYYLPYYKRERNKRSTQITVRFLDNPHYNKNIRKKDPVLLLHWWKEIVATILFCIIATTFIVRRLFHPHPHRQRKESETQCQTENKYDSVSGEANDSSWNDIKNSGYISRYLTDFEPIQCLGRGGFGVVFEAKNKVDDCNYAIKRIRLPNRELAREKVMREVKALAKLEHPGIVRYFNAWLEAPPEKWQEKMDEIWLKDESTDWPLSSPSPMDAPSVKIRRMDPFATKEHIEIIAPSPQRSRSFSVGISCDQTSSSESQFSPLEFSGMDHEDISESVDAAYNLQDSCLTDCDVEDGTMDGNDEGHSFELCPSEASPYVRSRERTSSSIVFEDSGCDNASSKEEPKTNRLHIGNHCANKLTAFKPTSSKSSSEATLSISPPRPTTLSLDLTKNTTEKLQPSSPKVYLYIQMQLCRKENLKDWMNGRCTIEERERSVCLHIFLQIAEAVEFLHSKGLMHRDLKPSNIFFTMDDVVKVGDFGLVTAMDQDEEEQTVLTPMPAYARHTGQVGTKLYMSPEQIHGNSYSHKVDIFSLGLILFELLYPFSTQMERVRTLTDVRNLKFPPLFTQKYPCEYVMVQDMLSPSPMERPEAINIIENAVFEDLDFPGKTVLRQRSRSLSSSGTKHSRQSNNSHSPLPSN
Kind of assay: Kinase profiling EIF2AK3. Particulars: for remaining activity at 100 µM: read-out: residual kinase activity, EIF2AK3.
Description: as §1

The target in another assay is HIPK3 (Homo sapiens, UniProt Q9H422). As to the kind of experiment: Kinase profiling HIPK3. Particulars: for remaining activity at 100 µM: read-out: residual kinase activity, HIPK3.
Sequence of HIPK3 (Q9H422 whole entry, species assumed): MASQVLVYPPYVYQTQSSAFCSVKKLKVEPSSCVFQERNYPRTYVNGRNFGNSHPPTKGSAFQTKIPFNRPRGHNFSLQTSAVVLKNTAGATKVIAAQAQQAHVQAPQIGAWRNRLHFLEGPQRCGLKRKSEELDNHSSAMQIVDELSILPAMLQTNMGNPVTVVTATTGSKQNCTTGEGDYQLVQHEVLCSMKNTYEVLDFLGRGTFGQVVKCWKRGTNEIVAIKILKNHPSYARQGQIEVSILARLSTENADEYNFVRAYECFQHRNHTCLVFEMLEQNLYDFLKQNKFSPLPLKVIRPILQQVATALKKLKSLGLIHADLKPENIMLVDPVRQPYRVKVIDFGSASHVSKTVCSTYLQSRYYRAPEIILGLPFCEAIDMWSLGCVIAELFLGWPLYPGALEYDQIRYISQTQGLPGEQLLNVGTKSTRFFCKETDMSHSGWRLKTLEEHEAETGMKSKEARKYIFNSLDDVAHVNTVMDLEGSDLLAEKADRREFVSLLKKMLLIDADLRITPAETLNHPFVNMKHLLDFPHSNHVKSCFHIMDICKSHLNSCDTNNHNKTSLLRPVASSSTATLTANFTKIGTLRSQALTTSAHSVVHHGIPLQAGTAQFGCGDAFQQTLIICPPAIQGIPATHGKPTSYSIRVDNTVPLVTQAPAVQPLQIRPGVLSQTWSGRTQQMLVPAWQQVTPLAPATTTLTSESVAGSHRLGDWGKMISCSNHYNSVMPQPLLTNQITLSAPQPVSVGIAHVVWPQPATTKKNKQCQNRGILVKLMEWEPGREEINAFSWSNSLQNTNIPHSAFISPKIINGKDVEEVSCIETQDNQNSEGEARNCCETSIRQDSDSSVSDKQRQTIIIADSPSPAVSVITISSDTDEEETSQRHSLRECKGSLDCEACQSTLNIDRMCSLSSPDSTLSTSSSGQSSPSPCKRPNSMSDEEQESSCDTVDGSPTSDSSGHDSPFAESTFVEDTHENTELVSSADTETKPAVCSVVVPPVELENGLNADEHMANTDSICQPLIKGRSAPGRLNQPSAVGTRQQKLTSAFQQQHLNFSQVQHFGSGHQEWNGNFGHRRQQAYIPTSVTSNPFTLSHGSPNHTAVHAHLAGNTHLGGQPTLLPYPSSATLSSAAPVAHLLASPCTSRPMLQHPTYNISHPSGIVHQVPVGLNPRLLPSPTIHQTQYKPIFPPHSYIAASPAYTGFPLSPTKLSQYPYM
Description: as §1

Another assay deals with T2, GCK (Homo sapiens, UniProt Q12851).
T2 sequence (Q12851 1-820): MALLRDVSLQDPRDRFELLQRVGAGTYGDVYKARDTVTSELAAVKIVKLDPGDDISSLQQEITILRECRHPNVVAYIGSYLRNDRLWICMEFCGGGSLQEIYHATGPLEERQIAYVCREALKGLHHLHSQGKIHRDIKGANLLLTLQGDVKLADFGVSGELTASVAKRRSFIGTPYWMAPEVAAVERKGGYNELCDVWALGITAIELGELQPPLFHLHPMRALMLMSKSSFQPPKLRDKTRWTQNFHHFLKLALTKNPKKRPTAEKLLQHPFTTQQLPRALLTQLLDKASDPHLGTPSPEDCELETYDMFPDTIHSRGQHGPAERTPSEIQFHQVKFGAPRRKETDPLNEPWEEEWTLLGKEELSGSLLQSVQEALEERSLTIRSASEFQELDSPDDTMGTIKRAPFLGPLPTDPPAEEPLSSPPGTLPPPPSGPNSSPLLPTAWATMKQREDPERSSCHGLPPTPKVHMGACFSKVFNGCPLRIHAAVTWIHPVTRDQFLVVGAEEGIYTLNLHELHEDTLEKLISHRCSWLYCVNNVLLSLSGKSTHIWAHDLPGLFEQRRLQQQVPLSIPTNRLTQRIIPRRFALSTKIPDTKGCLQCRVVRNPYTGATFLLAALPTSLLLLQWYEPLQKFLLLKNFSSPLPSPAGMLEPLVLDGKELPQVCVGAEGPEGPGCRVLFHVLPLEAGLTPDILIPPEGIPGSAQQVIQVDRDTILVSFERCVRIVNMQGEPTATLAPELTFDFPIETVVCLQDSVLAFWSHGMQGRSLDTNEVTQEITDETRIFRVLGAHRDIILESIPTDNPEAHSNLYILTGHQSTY
As to the kind of experiment: Kinase profiling GCK. Particulars: for remaining activity at 100 µM: read-out: residual kinase activity, GCK.
Description: as §1

In a further assay the target is T3, MAP4K3 (Homo sapiens, UniProt Q8IVH8).
T3 sequence (Q8IVH8 1-894): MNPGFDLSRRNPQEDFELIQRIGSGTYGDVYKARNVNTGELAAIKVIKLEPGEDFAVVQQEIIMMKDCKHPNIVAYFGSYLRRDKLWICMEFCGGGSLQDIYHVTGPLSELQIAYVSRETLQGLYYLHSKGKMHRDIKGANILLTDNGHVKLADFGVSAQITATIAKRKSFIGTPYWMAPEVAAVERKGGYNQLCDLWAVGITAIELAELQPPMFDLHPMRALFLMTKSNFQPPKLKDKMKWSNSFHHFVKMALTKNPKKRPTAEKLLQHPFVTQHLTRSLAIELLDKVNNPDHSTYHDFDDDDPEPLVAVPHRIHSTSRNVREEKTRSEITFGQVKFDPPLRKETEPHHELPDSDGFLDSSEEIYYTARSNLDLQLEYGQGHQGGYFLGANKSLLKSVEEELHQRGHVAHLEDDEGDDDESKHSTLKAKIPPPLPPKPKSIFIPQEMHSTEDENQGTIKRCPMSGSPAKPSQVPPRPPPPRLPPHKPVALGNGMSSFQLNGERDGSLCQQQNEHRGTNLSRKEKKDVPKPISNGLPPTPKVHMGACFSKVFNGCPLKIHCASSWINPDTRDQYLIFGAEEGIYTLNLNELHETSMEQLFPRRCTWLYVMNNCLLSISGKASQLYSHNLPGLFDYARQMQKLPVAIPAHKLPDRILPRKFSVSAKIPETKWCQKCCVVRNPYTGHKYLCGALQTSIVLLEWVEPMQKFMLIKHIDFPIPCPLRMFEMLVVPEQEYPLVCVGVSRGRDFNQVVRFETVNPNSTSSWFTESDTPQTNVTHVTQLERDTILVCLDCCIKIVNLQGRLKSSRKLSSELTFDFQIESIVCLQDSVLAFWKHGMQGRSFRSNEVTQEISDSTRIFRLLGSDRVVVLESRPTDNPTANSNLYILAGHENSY
Kind of assay: Kinase profiling MAP4K3. The settings on record: for remaining activity at 100 µM: read-out: residual kinase activity, MAP4K3.
Description: as §1

The next assay deals with PDGFRA (Homo sapiens, UniProt P16234). Kind of assay: Kinase profiling PDGFRA. Particulars: for remaining activity at 100 µM: read-out: residual kinase activity, PDGFRA.
Sequence of PDGFRA (P16234 24-1089, species assumed): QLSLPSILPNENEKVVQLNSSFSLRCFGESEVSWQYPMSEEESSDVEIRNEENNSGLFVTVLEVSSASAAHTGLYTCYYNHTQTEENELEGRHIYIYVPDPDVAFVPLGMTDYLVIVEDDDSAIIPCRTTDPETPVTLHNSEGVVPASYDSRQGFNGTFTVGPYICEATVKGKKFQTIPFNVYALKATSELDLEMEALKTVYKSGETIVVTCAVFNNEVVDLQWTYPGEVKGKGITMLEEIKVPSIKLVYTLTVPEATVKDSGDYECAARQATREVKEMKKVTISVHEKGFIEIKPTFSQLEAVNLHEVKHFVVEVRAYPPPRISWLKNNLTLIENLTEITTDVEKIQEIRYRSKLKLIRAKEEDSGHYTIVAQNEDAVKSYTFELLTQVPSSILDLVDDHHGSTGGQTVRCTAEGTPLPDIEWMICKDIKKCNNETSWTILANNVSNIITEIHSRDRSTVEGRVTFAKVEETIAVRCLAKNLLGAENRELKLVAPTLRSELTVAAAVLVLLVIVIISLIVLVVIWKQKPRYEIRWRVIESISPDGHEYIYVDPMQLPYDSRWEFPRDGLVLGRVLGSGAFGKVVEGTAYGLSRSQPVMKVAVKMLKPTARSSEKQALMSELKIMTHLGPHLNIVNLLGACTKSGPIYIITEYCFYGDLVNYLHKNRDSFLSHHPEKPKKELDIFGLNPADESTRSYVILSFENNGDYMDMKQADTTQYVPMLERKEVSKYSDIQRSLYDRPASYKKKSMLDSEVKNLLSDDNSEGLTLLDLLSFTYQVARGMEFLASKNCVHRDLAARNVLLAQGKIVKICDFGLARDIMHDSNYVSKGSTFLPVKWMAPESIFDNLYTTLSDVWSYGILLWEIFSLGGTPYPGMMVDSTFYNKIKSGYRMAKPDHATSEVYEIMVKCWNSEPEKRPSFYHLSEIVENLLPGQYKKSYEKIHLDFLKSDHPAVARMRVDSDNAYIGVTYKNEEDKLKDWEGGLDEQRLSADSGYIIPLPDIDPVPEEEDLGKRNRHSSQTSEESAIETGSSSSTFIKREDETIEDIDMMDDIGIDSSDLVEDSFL
Description: as §1

Setting [1] is: 100 micromolar inhibitor concentration, 100 is no change.
The mark [2] stands for this setting: 100 micromolar inhibitor, 100 = no change.

Like-named read-outs stand apart in the source and are kept apart here.

Sequence of MNK2 (Q9HBH9 whole entry, species assumed): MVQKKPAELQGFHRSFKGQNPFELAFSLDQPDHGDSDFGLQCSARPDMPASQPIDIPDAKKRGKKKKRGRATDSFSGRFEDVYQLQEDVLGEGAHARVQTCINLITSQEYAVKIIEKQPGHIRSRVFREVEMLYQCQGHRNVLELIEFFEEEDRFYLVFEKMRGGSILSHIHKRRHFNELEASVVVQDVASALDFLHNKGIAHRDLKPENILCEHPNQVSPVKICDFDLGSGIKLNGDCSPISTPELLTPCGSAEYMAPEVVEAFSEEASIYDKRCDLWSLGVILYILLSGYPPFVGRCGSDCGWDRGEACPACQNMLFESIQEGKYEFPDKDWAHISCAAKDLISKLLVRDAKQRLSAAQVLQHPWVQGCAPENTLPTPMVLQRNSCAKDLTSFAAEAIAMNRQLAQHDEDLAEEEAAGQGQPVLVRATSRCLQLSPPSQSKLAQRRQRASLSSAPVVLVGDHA

Consider `CC(=O)Nc1nc2cc(O)ccc2s1` [Compound 01-66, N-(5-hydroxybenzo[d]thiazol-2-yl)acetamide], for which the remaining activity at 100 µM was found to be 33% on MNK2, 59% at EIF2AK3, 37% at HIPK3 and 32% on GCK.

For the compound `CC(=O)Nc1nc2ccc(O)cc2s1` [Compound 01-71], the remaining activity at 100 µM at MNK2 (setting [1]) is 34%; at EIF2AK3 (setting [1]), 77%; on HIPK3 (setting [1]), 27%; at GCK (setting [1]) it was 19%.

Take `CC(=O)Nc1nc2ccc(C(F)(F)F)cc2s1` [Compound 01-90]: the remaining activity at 100 µM on MNK2 (setting [1]) is 71%; on EIF2AK3 (setting [1]), 105%; on HIPK3 (setting [1]), 69%; on GCK (setting [1]), 15%; at MAP4K3 (setting [1]), 65%; at PDGFRA (setting [1]), 30%.

`CC(=O)Nc1nc2ccc(C#N)cc2s1` [Compound 01-94]: the remaining activity at 100 µM at MNK2 (setting [1]) came out at 50%; at EIF2AK3 (setting [1]), 78%; at HIPK3 (setting [1]) it was 38%; at GCK (setting [1]) it was 11%; at MAP4K3 (setting [1]), 52%; at PDGFRA (setting [1]), 40%.

Regarding `CC(=O)Nc1cccc(NC(=O)c2nc3ccc(O)cc3s2)c1` [Compound 03-07, N-(3-acetamidophenyl)-6-hydroxybenzo[d]thiazole-2-carboxamide], the remaining activity at 100 µM amounted to 50% on MNK2 (setting [2]); 69% at EIF2AK3 (setting [2]); 81% at HIPK3 (setting [2]); 35% at GCK (setting [2]); 63% on MAP4K3 (setting [2]); 44% at PDGFRA (setting [2]).

Consider `O=C(Nc1nc2cc(O)ccc2s1)c1ccncc1` [Compound 03-11], for which the “residual kinase activity, MNK2” value at MNK2 (setting [1]) stood at 75. The “residual kinase activity, EIF2AK3” value on EIF2AK3 (setting [1]) worked out at 65. The “residual kinase activity, HIPK3” value on HIPK3 (setting [1]) worked out at 106. Further, the “residual kinase activity, GCK” value on GCK (setting [1]) was 33. The “residual kinase activity, MAP4K3” value on MAP4K3 (setting [1]) amounted to 73. The “residual kinase activity, PDGFRA” value at PDGFRA (setting [1]) came out at 63.

`O=C(Nc1nc2ccc(O)cc2s1)c1ccccn1` [Compound 03-12]: the “residual kinase activity, MNK2” value at MNK2 (setting [1]) came out at 66. On EIF2AK3 (setting [1]), the “residual kinase activity, EIF2AK3” value was 73. For the same compound, the “residual kinase activity, HIPK3” value at HIPK3 (setting [1]) is 84. Moreover, the “residual kinase activity, GCK” value on GCK (setting [1]) turned out to be 29. The “residual kinase activity, MAP4K3” value at MAP4K3 (setting [1]) was 54. Besides, the “residual kinase activity, PDGFRA” value on PDGFRA (setting [1]) is listed as 56.

In the case of `O=C(Nc1nc2cc(O)ccc2s1)c1ccccn1` [Compound 03-13], the “residual kinase activity, MNK2” value on MNK2 (setting [1]) worked out at 66. Also, the “residual kinase activity, EIF2AK3” value on EIF2AK3 (setting [1]) was 89. The “residual kinase activity, HIPK3” value at HIPK3 (setting [1]) was 82. The “residual kinase activity, GCK” value at GCK (setting [1]) is given as 39. Moreover, the “residual kinase activity, MAP4K3” value at MAP4K3 (setting [1]) was determined as 67. In addition, the “residual kinase activity, PDGFRA” value at PDGFRA (setting [1]) is given as 43.

On to `COc1ccc2sc(NC(C)=O)nc2c1` [Compound 03-21], for which the remaining activity at 100 µM on MNK2 (setting [1]) turned out to be 84%; at EIF2AK3 (setting [1]), 82%; on HIPK3 (setting [1]), 86%; at GCK (setting [1]), 3%; on MAP4K3 (setting [1]), 75%; at PDGFRA (setting [1]), 87%.

Consider `CC(=O)Nc1nc2ccccc2s1` [Compound 03-32], for which, on MNK2 (setting [1]), the “residual kinase activity, MNK2” value was 91. The “residual kinase activity, EIF2AK3” value on EIF2AK3 (setting [1]) was 104. For the same compound, at HIPK3 (setting [1]), the “residual kinase activity, HIPK3” value is reported as 78. At GCK (setting [1]), the “residual kinase activity, GCK” value turned out to be 39. The “residual kinase activity, MAP4K3” value on MAP4K3 (setting [1]) came out at 90. For the same compound, at PDGFRA (setting [1]), the “residual kinase activity, PDGFRA” value came out at 78.

With `O=C(Nc1nc2cc(O)ccc2s1)c1cccnc1` [Compound 03-33], the “residual kinase activity, MNK2” value at MNK2 (setting [1]) worked out at 36. In addition, the “residual kinase activity, EIF2AK3” value at EIF2AK3 (setting [1]) worked out at 87. Also, the “residual kinase activity, HIPK3” value on HIPK3 (setting [1]) was 102. In addition, the “residual kinase activity, GCK” value on GCK (setting [1]) came to 25. In addition, the “residual kinase activity, MAP4K3” value on MAP4K3 (setting [1]) stood at 69. For the same compound, the “residual kinase activity, PDGFRA” value on PDGFRA (setting [1]) was 61.

As for `O=C(Nc1nc2ccc(O)cc2s1)c1ccccc1` [Compound 03-60], the “residual kinase activity, MNK2” value at MNK2 (setting [1]) is recorded as 25. In addition, the “residual kinase activity, EIF2AK3” value on EIF2AK3 (setting [1]) came to 45. At HIPK3 (setting [1]), the “residual kinase activity, HIPK3” value is on record as 38. Besides, the “residual kinase activity, GCK” value at GCK (setting [1]) was 4. The “residual kinase activity, MAP4K3” value on MAP4K3 (setting [1]) was found to be 56. Also, the “residual kinase activity, PDGFRA” value on PDGFRA (setting [1]) was 29.

Consider `CC(=O)Nc1nc2cc(C(F)(F)F)ccc2s1` [Compound 03-73], for which the remaining activity at 100 µM on MNK2 (setting [1]) is 96%; at EIF2AK3 (setting [1]), 100%; at HIPK3 (setting [1]), 106%; at GCK (setting [1]), 36%; at MAP4K3 (setting [1]), 63%; at PDGFRA (setting [1]), 34%.
